Assay results taken from US10238623B2, “C14-hydroxyl esterified amino acid derivative of triptolide, and preparation method and use thereof” (HANGZHOU WEBEN PHARMACEUTICALS INC, priority 2015, dated 2019).
Values joined by “and” are separate entries in the source; they are usually repeats but may differ in a detail not shown here. Equal entries are not always repeated.

What was measured:
Jurkat = experiment: MTT growth inhibition, Jurkat cells, 72 h; format: cell-based, human
Description: (§1) 5000 well-grown leukemia cells or normal human blood cells were taken and seeded into wells of a 96-well cell culture plate. The medium was 1640 cell medium containing 10% fetal bovine serum. 14-D-Valine-TPL with different concentrations was added, and after being uniformly mixed, the plate was placed in a carbon dioxide (5% CO2) cell incubator, and incubated at 37° C. for 72 hours. The concentration of live cells was then determined using the MTT assay. In this experiment, the cell viability in the control group (without the compound treatment) was set to be 100%, and the cell viability (%) after the action of the compound the half maximal growth inhibitory concentration of leukemia cells at 72 hours (IC50 value at 72 hours) and the therapeutic window index were calculated. Therapeutic window index=IC50 value of normal blood cells/IC50 value of leukemia cells. […] A larger therapeutic window indicates a better selectivity of the compound for tumor cells.
(§2) 5000 well-grown leukemia cells were taken and seeded into wells of a 96-well cell culture plate. The medium was 1640 cell medium containing 10% fetal bovine serum. 14-D-Valine-TPL with different concentrations was added, and after being uniformly mixed, the plate was placed in a carbon dioxide (5% CO2) cell incubator, and incubated at 37° C. for 72 hours. The concentration of live cells was then determined using the MTT assay. In this experiment, the cell viability in the control group (without the compound treatment) was set to be 100%, and the cell viability (%) after the action of the compound and the half maximal growth inhibitory concentration of leukemia cells at 72 hours (IC50 value at 72 hours) were calculated.
as §2, with “well-grown lymphocytes” for “well-grown leukemia cells”

Sup-B15 = experiment: MTT growth inhibition, Sup-B15 cells, 72 h; format: cell-based, human
Description: as §1, §2
as §2, with “well-grown lymphocytes” for “well-grown leukemia cells”

normal human blood cells = experiment: MTT assay, normal human blood cells, 72 h; format: cell-based; conditions: Normal Blood Cell
Description: Leukemia cell strains: Sup-B15 (Ph+acute lymphoblastic leukemia), CEM (acute lymphoblastic leukemia, ALL), and Molt-4 (acute lymphoblastic leukemia, ALL). Normal blood cell samples: peripheral blood from healthy volunteers. • Primary reagent: 14-D-Valine-TPL of the invention. Primary instruments: cell incubator and microplate reader. (2) Experimental Method
as §1

KG-1a = experiment: MTT growth inhibition, KG-1a cells, 72 h; format: cell-based; conditions: Homo sapiens
Description: as §2

HL-60 = experiment: MTT growth inhibition, HL-60 cells, 72 h; format: cell-based; conditions: Homo sapiens, HL-60, MTT
Description: as §2

[1] = test system: RNA polymerase II (Pol II); experiment: Immunoblot of Pol II level in THP-1 cells, 48 h; format: cell-based, human; conditions: 160 nM
Description: Well-grown leukemia cells were taken and seeded into wells of a 6-well cell culture plate, with a density of 1×10^6/ml. The medium was 1640 cell medium containing 10% fetal bovine serum. 14-D-Valine-TPL with different concentrations was added, and after being uniformly mixed, the plate was placed in a carbon dioxide (5% CO2) cell incubator, and incubated at 37° C. for 48 hours. Cellular proteins were then extracted, and the immunoblot technique was used to detect the expression levels of XPB and Pol II.

Q: How did the IC50 (Jurkat; Homo sapiens, Jurkat, 72 h) turn out when `CC(C)[C@@H](N)C(=O)O[C@@H]1[C@@]2(C(C)C)O[C@H]2[C@@H]2O[C@]23[C@]12O[C@H]2C[C@H]1C2=C(CC[C@@]13C)C(=O)OC2` [14-D-Valine-TPL, 14-Dextro-Valine-Triptolide] was run?
A: 36.3 nM

Q: What about the Therapeutic window (Jurkat; IC50 of normal blood cells/IC50 of Jurkat) of the same molecule?
A: 5.54

Q: And the IC50 (Sup-B15; Homo sapiens, SUP-B15, 72 h)?
A: 20.7 nM

Q: And the Therapeutic window (Sup-B15; IC50 of normal blood cells/IC50 of Sup-B15)?
A: 9.73

Q: What about the IC50 (normal human blood cells; Homo sapiens, 72 h, Overall, MTT) of the same molecule?
A: 201 nM

Q: And the IC50 (normal human blood cells; Homo sapiens, 72 h, individual healthy volunteers No1-No9, MTT)?
A: 203 nM

Q: And the IC50 (normal human blood cells; individual healthy volunteers No1-No9, MTT)?
A: 199 nM and 206 nM and 200 nM and 214 nM and 190 nM and 204 nM and 185 nM and 211 nM

Q: What about the IC50 (KG-1a) of the same molecule?
A: 31 nM

Q: What about the IC50 (HL-60) of the same molecule?
A: 65.8 nM

Q: What about the “level of Pol II (immunoblot)” value [1] of the same molecule?
A: significantly inhibited
